Measured values published in paper PMC8194371 (Journal of medicinal chemistry, 2021).
Converted amounts (≈) assume the structure as drawn. “And” between values parts separate entries of the source, which are not always exact repeats. Equal values may be shown once. Read-outs that look alike come from different tables or passages of the source.

How the values were obtained:
[1] = test system: Mtb strain CDC1551 dop::MycoMarT7 expressing pupGGE; assay: Accumulation of pupylated proteins; type: cell-based, Mycobacterium tuberculosis
[2] = molecular target: β5i of the human i-20S (Homo sapiens, UniProt P28062); type: biochemical
[3] = molecular target: β5c of the human c-20S (Homo sapiens, UniProt P28074); assay: human constitutive proteasome β5c inhibition, suc-LLVY-AMC; type: biochemical; details: for SIapp IC50–β5c / IC50–Mtb20S: apparent selectivity index, rounded to three or fewer significant figures
[4] = test system: Mtb strain MHD1441 (H37Rv WT + pSCK1); type: cell-based, Mycobacterium tuberculosis; details: 0.1-33 μM, day 4
[5] = test system: HepG2 cells; assay: Viability of HepG2 cells; details: at 30 μM
[6] = Kinetic solubility; type: physicochemical; details: PBS buffer
[7] = molecular target: Mtb20SOG (Mycobacterium tuberculosis, UniProt P9WHT9); assay: Mtb20SOG proteasome inhibition, suc-LLVY-AMC hydrolysis; type: biochemical; details: Mtb20S IC50, text values
Mtb20SOG, sequence (P9WHT9 58-291): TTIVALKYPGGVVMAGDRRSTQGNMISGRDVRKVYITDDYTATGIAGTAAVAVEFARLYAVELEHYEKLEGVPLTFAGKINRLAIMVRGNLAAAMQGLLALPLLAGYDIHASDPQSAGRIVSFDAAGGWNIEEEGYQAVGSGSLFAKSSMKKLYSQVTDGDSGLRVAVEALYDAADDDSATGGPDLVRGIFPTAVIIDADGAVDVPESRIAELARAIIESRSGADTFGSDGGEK

Structure (SMILES)	SIapp IC50–β5i / IC50–Mtb20S [2]	SIapp IC50–β5c / IC50–Mtb20S [3]	further results
CC(C)C[C@H](NC(=O)[C@H](CCc1ccccc1)NC(=O)CN1CCOCC1)C(=O)N[C@@H](Cc1ccccc1)C(=O)N[C@@H](CC(C)C)C(=O)[C@@]1(C)CO1 [Carfilzomib, reference compound]	–	–	accumulation of pupylated proteins [1]: led to accumulation of pupylated proteins
O=C1CCCCCCCCCC[C@@H](C(=O)NCc2cccc3ccccc23)NC(=O)[C@H](CC(=O)N2CCCC2)N1 [Macrocycle 2]	>674	>674	–
O=C1CCCCCCCCC[C@@H](C(=O)NCc2cccc3ccccc23)NC(=O)[C@H](CC(=O)N2CCCC2)N1 [Macrocycle 3]	>141	>141	–
O=C1CCCCCCCCOC[C@@H](C(=O)NCc2cccc3ccccc23)NC(=O)[C@H](CC(=O)N2CCCC2)N1 [Macrocycle 4]	>984	>984	–
O=C1CCc2cccc(c2)Oc2ccc(cc2)C[C@@H](C(=O)NCc2ccccc2F)NC(=O)[C@H](CC(=O)N2CCCC2)N1 [Macrocycle 5]	–	>500	–
O=C1CCc2cccc(c2)Oc2ccc(cc2)C[C@@H](C(=O)NCc2ccccc2F)NC(=O)[C@H](CC(=O)N2CCC[C@@H]2c2ccccc2)N1 [Macrocycle 6]	>13,600	>13,600	selectivity for Mtb20S over human i-20S [2]: > 13,600 fold and > 10,000 fold; Pup-GFP accumulation (RFU normalized by OD) [4]: dose-dependent increase of RFU; selectivity for Mtb20S over human c-20S [3]: > 13,600 fold and > 10,000 fold; cytotoxicity toward HepG2 [5]: no appreciable cytotoxicity; accumulation of pupylated proteins ([1]; macrocycle 6 at 1, 3, or 10 μM for 48 h, CFZ at 50 μM): dose-dependently promoted the accumulation of pupylated proteins
O=C1CCCCCCCCOC[C@@H](C(=O)NCc2ccccc2F)NC(=O)[C@H](CC(=O)N2CCC[C@@H]2c2ccccc2)N1 [Macrocycle 9]	>14,000	>14,000	solubility at 24 h ([6]; pH 6.8): 1.4 µg/mL (≈ 2.35 µM); solubility at 24 h ([6]; pH 6.8, aqueous buffer, kinetic from dmso stock): < 1.4 µg/mL
O=C1CCc2cccc(c2)OCCCC[C@@H](C(=O)NCc2ccccc2F)NC(=O)[C@H](CC(=O)N2CCC[C@@H]2c2ccccc2)N1 [Macrocycle 10]	>14,400	>14,400	selectivity for Mtb20S over human i-20S [2]: > 14,400 fold; Pup-GFP accumulation (RFU normalized by OD) [4]: dose-dependent increase of RFU; selectivity for Mtb20S over human c-20S [3]: > 14,400 fold; cytotoxicity toward HepG2 [5]: no appreciable cytotoxicity
O=C1CCc2cccc(c2)OCCCC[C@@H](C(=O)NCc2ccccc2F)NC(=O)[C@H](CC(=O)N2CCC[C@@H]2C2CC2)N1 [Macrocycle 11]	–	–	IC50 [7]: 6.5 nM
